Drawing on patent publication US9668481B2, “Triazole derivatives” (priority 2013, dated 2017), this text covers Eff. %, chromatographic logP and LogP for 3 compounds.

The subject of one data set is Puccinia recondita. Nature of the data set: In vivo preventive test on Puccinia recondita (brown rust on wheat). The settings on record: wheat plants, preventive spray, evaluated 11 days after inoculation. How it is done: The young plants of wheat are treated by spraying the active ingredient prepared as described above. Control plants are treated only with an aqueous solution of acetone/Dimethyl sulfoxide/Tween®. After 24 hours, the plants are contaminated by spraying the leaves with an aqueous suspension of Puccinia recondita spores.

The test system of the next data set is Pyrenophora teres. The experiment in a line: In vivo preventive test on Pyrenophora teres (net blotch on barley). To be noted: 100 ppm of active ingredient; barley plants, preventive spray; evaluated 14 days after inoculation. The method, then:
The young plants of barley are treated by spraying the active ingredient prepared as described above. Control plants are treated only with an aqueous solution of acetone/Dimethyl sulfoxide/Tween®. After 24 hours, the plants are contaminated by spraying the leaves with an aqueous suspension of Pyrenophora teres spores.

Another data set concerns Sphaerotheca fuliginea. Nature of the data set: In vivo preventive test on Sphaerotheca fuliginea (powdery mildew on cucurbits). The settings on record: gherkin plants, preventive spray, evaluated 15 days after inoculation. The method, then: The young plants of gherkin are treated by spraying the active ingredient prepared as described above. Control plants are treated only with an aqueous solution of acetone/Dimethyl sulfoxide/Tween®. After 24 hours, the plants are contaminated by spraying the leaves with an aqueous suspension of Sphaerotheca fuliginea spores.

The test system of the next data set is Uromyces appendiculatus. The experiment in a line: In vivo preventive test on Uromyces appendiculatus (bean rust). The settings on record: bean plants, preventive spray, evaluated 11 days after inoculation. The method, then: The young plants of bean are treated by spraying the active ingredient prepared as described above. Control plants are treated only with an aqueous solution of acetone/Dimethyl sulfoxide/Tween®. After 24 hours, the plants are contaminated by spraying the leaves with an aqueous suspension of Uromyces appendiculatus spores.

Data set [1] relates to Blumeria graminis fsp. hordei. Nature of the data set: Blumeria test (barley)/preventive. Format: in vivo. The settings on record: 500 ppm of active ingredient, preventive, evaluated 7 days after inoculation. How it is done: (§1) Solvent: 49 parts by weight of N,N-dimethylacetamide Emulsifier: 1 part by weight of alkylaryl polyglycol ether To produce a suitable preparation of active compound, 1 part by weight of active compound or active compound combination is mixed with the stated amounts of solvent and emulsifier, and the concentrate is diluted with water to the desired concentration. To test for preventive activity, young plants are sprayed with the preparation of active compound or active compound combination at the stated rate of application. After the spray coating has been dried, the plants are dusted with spores of Blumeria graminis fsp. hordei. The plants are placed in the greenhouse at a temperature of approximately 18° C. and a relative atmospheric humidity of approximately 80% to promote the development of mildew pustules.

A further data set concerns Fusarium culmorum. Nature of the data set: Fusarium culmorum-test (wheat)/preventive. Type of data set: in vivo. The settings on record: 500 ppm of active ingredient, preventive, evaluated 5 days after inoculation. How it is done:
Solvent: 49 parts by weight of N,N-dimethylacetamide
Emulsifier: 1 part by weight of alkylaryl polyglycol ether
To produce a suitable preparation of active compound, 1 part by weight of active compound or active compound combination is mixed with the stated amounts of solvent and emulsifier, and the concentrate is diluted with water to the desired concentration.
To test for preventive activity, young plants are sprayed with the preparation of active compound or active compound combination at the stated rate of application. After the spray coating has been dried, the plants are slightly injured by using a sandblast and afterwards they are sprayed with a conidia suspension of Fusarium culmorum.
The plants are placed in the greenhouse under a translucent incubation cabinet at a temperature of approximately 22° C. and a relative atmospheric humidity of approximately 100%.
The test is evaluated 5 days after the inoculation. 0% means an efficacy which corresponds to that of the untreated control, while an efficacy of 100% means that no disease is observed.

For a further data set, the system named is Fusarium graminearum. Format: in vivo. To be noted: 500 ppm of active ingredient; barley, preventive; evaluated 5 days after inoculation.
In data set [2] the test system is Fusarium nivale (var. majus). Nature of the data set: Fusarium nivale (var. majus)-test (wheat)/preventive. Format: in vivo. To be noted: 500 ppm of active ingredient, preventive, evaluated 5 days after inoculation. The method, then:
as §1, with “slightly injured by using a sandblast and afterwards they are sprayed” for “dusted”, “a conidia suspension” for “spores”, “Fusarium nivale (var. majus).” for “Blumeria graminis fsp. hordei. The plants are placed in the greenhouse at a temperature of approximately 18° C. and a relative atmospheric humidity of approximately 80% to promote the development of mildew pustules.”

The subject of a further data set is Leptosphaeria nodorum. The experiment in a line: Leptosphaeria nodorum test (wheat)/preventive. Format: in vivo. To be noted: 500 ppm of active ingredient, preventive, evaluated 8 days after inoculation. How it is done:
as §1, with “sprayed” for “dusted”, “a spore suspension” for “spores”, “Leptosphaeria nodorum. […]” for “Blumeria graminis fsp. hordei.”, “22°” for “18°”, “80%.” for “80% to promote the development of mildew pustules.”

The next data set concerns Phakopsora pachyrhizi. Nature of the data set: Phakopsora test (soybeans)/preventive. Type of data set: in vivo. To be noted: 100 ppm of active ingredient, preventive, evaluated 7 days after inoculation.
Another data set relates to Venturia inaequalis. The experiment in a line: Venturia test (apples)/preventive. Type of data set: in vivo. To be noted: 100 ppm of active ingredient, preventive, evaluated 10 days after inoculation. How it is done: Solvent: 24.5 parts by weight of acetone • 24.5 parts by weight of dimethylacetamide Emulsifier: 1 part by weight of alkylaryl polyglycol ether To produce a suitable preparation of active compound, 1 part by weight of active compound is mixed with the stated amounts of solvent and emulsifier, and the concentrate is diluted with water to the desired concentration. To test for preventive activity, young plants are sprayed with the preparation of active compound at the stated rate of application. […] The plants are then placed in a greenhouse at approximately 21° C. and a relative atmospheric humidity of approximately 90%.

The next data set can be described thus: physchem. To be noted: reversed phase HPLC columns, pH 2.7.
In a further data set the test system is Botrytis cinerea. Nature of the data set: In vivo preventive test on Botrytis cinerea (grey mould). To be noted: gherkin plants, preventive spray, evaluated 4 to 5 days after inoculation. How it is done: The young plants of gherkin are treated by spraying the active ingredient prepared as described above. Control plants are treated only with an aqueous solution of acetone/Dimethyl sulfoxide/Tween®. After 24 hours, the plants are contaminated by spraying the leaves with an aqueous suspension of Botrytis cinerea spores. The contaminated gherkin plants are incubated for 4 to 5 days at 17° C. and at 90% relative humidity.

Data set [3] relates to Pyricularia oryzae. Format: in vivo. The settings on record: 500 ppm of active ingredient; rice plants, preventive spray; evaluated 6 days after inoculation.
Another data set has as its system Septoria tritici. The experiment in a line: In vivo preventive test on Septoria tritici (leaf spot on wheat). To be noted: wheat plants, preventive spray, evaluated 24 days after inoculation. How it is done:
The young plants of wheat are treated by spraying the active ingredient prepared as described above. Control plants are treated only with an aqueous solution of acetone/Dimethyl sulfoxide/Tween®. After 24 hours, the plants are contaminated by spraying the leaves with an aqueous suspension of Septoria tritici spores.

The test system of a further data set is Podosphaera leucotricha. The experiment in a line: Podosphaera test (apples)/preventive. To be noted: 100 ppm of active ingredient, preventive, evaluated 10 days after inoculation. Type of data set: in vivo. How it is done: Solvent: 24.5 parts by weight of acetone • 24.5 parts by weight of dimethylacetamide Emulsifier: 1 part by weight of alkylaryl polyglycol ether To produce a suitable preparation of active compound, 1 part by weight of active compound is mixed with the stated amounts of solvent and emulsifier, and the concentrate is diluted with water to the desired concentration. To test for preventive activity, young plants are sprayed with the preparation of active compound at the stated rate of application. After the spray coating has dried on, the plants are inoculated with an aqueous spore suspension of the causal agent of apple mildew (Podosphaera leucotricha). The plants are then placed in a greenhouse at approximately 23° C. and a relative atmospheric humidity of approximately 70%.

The subject of data set [4] is Pyricularia oryzae. Format: in vivo. To be noted: 500 ppm of active ingredient; rice, preventive; evaluated 8 days after inoculation.

In general, chromatographic logP refers to a lipophilicity value derived from retention on a column. A low value points to a more hydrophilic compound. In general, LogP refers to a log measure of how a compound divides between an organic and an aqueous phase. Low values mean a more hydrophilic compound, high ones a more lipophilic compound.

Read-outs that look alike come from different tables or passages of the source. Marks after values point to notes of the source that are not given here.

For `CC(C)(C)C(O)(Cc1ccncc1Cl)Cn1cncn1` (stereo not shown) [Example I-4, 1-(3-chloropyridin-4-yl)-3,3-dimethyl-2-(1H-1,2,4-triazol-1-ylmethyl)butan-2-ol], the Eff. % in the data set with Puccinia recondita (100 ppm of active ingredient) was 88%; in the data set with Pyrenophora teres, 83%; with Sphaerotheca fuliginea (100 ppm of active ingredient), 100%; in the data set on Uromyces appendiculatus (100 ppm of active ingredient), 100%; in data set [1] it was 100%; in the data set on Fusarium culmorum it was 93%. Also, the Eff. % with Fusarium graminearum is 92%; in data set [2], 100%; in the data set with Leptosphaeria nodorum it was 88%; in the data set with Phakopsora pachyrhizi it was 99%; in the data set with Venturia inaequalis, 94%. The chromatographic logP in “physchem” was 1.74.

Turning to `CC(C)(C)C(O)(Cc1cccnc1Cl)Cn1cncn1` (stereo not shown) [Example I-3], the Eff. % in the data set on Botrytis cinerea (500 ppm of active ingredient) worked out at 100%; with Puccinia recondita (500 ppm of active ingredient), 97%; in the data set on Pyricularia oryzae [3], 88%; with Septoria tritici (500 ppm of active ingredient) it was 100%; in the data set with Sphaerotheca fuliginea (500 ppm of active ingredient), 100%; with Uromyces appendiculatus (500 ppm of active ingredient) it was 100%. The Eff. % (in [1]; in the data set on Fusarium culmorum; in the data set on Fusarium graminearum; in [2]; in the data set on Leptosphaeria nodorum; in the data set with Phakopsora pachyrhizi) was 100% throughout. The Eff. % in the data set on Podosphaera leucotricha is on record as 100%; in the data set with Pyricularia oryzae [4], 75%; in the data set on Venturia inaequalis, 100%. In addition, the LogP worked out at 1.94 (pH 2.7) and 1.90 (pH 7.8).

On to `CC(C)(C)C(O)(Cc1ccncc1F)Cn1cncn1` (stereo not shown) [Example I-6], for which the Eff. % in the data set with Botrytis cinerea (100 ppm of active ingredient) stood at 100%; in the data set with Puccinia recondita (100 ppm of active ingredient), 88%; in the data set on Septoria tritici (100 ppm of active ingredient), 98%; with Sphaerotheca fuliginea (100 ppm of active ingredient) it was 100%; in the data set on Uromyces appendiculatus (100 ppm of active ingredient) it was 100%; in data set [1] it was 100%. For the same compound, the Eff. % in the data set with Fusarium culmorum was 100%; in the data set with Fusarium graminearum, 100%; in data set [2] it was 100%; with Leptosphaeria nodorum, 100%; with Phakopsora pachyrhizi, 99%; in the data set with Pyricularia oryzae [4], 94%. In the data set on Venturia inaequalis, this compound yielded an Eff. % of 96%. The lipophilicity (LogP) (pH 2.7) was 1.41^[a].
